In one assay the target is T1, human IGF1R (hIGF1R) (Homo sapiens, UniProt P08069).
T1 construct: containing amino acid residues 957-1367 of human IGF1R; made in house; host or cells: Sf9 cells (baculovirus)
Briefly: TR-FRET kinase assay of purified hIGF1R. To be noted: activated hIGF1R 0.5 nM, 10 μM ATP, values given as pIC50 category, read-out: IGF-1R pIC50 (converted). The class given is biochemical. Background: TR-FRET usually uses a lanthanide donor and a delayed reading to cut background.

Another assay has as its target T2, human IR (hIR) (Homo sapiens, UniProt P06213).
T2 construct: containing amino acid residues 979-1382 of human IR; made in house; host or cells: Sf9 cells (baculovirus), same process as hIGF1R
The assay is described as follows: TR-FRET kinase assay of purified hIR. In kind it is biochemical. Conditions: activated hIR 0.5 nM, 10 μM ATP, values given as pIC50 category.

Another assay relates to Colo205. The assay is described as follows: Inhibition of cell proliferation (CellTiter-Glo or InCell analyzer), Colo205. Conditions: Homo sapiens, COLO 205, 72 h / 3 days, values given as IC50 category. In kind it is cell-based. Put shortly: In one
On the technique in general: Cellular ATP, detected with luciferase, serves as a proxy for viable cell number.

The next assay concerns NCI-H929. The assay is described as follows: Inhibition of cell proliferation (CellTiter-Glo or InCell analyzer), NCI-H929. The class given is cell-based. Conditions: Homo sapiens, 72 h / 3 days, values given as IC50 category. On the procedure:
Cell proliferation was measured by either CellTiter-Glo (measures cellular ATP level as a surrogate for total cell number) or by InCell analyzer (counts number of nuclei as a measure of cell number).
For CellTiter-Glo assay, exponentially growing cell lines of different tumor origins, cultured in appropriate media containing 10% fetal bovine serum at 37° C. in a 5% CO2 incubator, were plated at low density (less than 2000cells/well) in 96-well plates. Twenty four hours post-plating, cells were treated with different concentrations of test compounds ranging from 30 uM to 1.5 nM. Several wells were left untreated as a control. Seventy two hours post-treatment, cell numbers were determined using 50-100 ul per well of CellTiter-Glo (Promega #G7573). Plates were incubated at 37° C. for 30 minutes and the chemiluminescent signal was read on the Victor V or Envison 2100 reader.
For InCell Analyser assay, various cell lines of different tumor origins were grown to 70-80% confluency in appropriate culture media containing 10% fetal bovine serum at 37° C. in a 5% CO2 incubator. On day −1, cells were seeded at 2 densities in 384-well plates and incubated at 37° C. overnight. Stock compound plates were prepared in advance which contained dimethyl sulfoxide (DMSO) alone and a 9-point half-log decreasing dose range of the compound in DMSO. The compound plates were stored at −80° C. and each plate was only thawed once and used. On day 0, the main assay plates received compound or DMSO via a sonic delivery system (ECHO). The highest final concentration of compound of the dose range in the culture plates was 10 uM. These plates were cultured at 37° C. for 3 days. […] On day 3, the compound treated plates were stained and fixed to measure proliferation, apoptosis, and mitotic index using an InCelL1000 analyser. A nuclear stain was used to identify cells in the wells. By counting the number of nuclei, the proliferation index of compound treated groups were calculated as a percentage relative to the DMSO control, which was set to 100%. The IC50 values were calculated using model 205 in ExcelFit.
IC50 (nM) values for compounds of select examples were categorized by relative inhibition of cell proliferation.

Assay [1] has as its target T3, NIH-3T3 cells overexpressing human IGF-1R (Homo sapiens, UniProt P08069).
T3 construct: expressed in transfected cells; host or cells: NIH-3T3 (mouse fibroblasts)
Briefly: IGF-1R cellular autophosphorylation (DELFIA). The class given is cell-based. Put shortly:
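Receptor autophosphorylation measured by DELFIA, capturing IGF-1R or IRβ and detecting with europium anti-pTyr, reported as percent of IGF-1- or insulin-stimulated signal. Compounds (30 uM to 1.5 nM) added 2 h before ligand, then 15 min stimulation (IGF-1 30 ng/ml or insulin 3 ug/ml).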

The target of assay [2] is T4, NIH-3T3 cells overexpressing human IR (Homo sapiens, UniProt P06213).
T4 construct: expressed in transfected cells; host or cells: NIH-3T3 (mouse fibroblasts)
T4 sequence (P06213 28-1382): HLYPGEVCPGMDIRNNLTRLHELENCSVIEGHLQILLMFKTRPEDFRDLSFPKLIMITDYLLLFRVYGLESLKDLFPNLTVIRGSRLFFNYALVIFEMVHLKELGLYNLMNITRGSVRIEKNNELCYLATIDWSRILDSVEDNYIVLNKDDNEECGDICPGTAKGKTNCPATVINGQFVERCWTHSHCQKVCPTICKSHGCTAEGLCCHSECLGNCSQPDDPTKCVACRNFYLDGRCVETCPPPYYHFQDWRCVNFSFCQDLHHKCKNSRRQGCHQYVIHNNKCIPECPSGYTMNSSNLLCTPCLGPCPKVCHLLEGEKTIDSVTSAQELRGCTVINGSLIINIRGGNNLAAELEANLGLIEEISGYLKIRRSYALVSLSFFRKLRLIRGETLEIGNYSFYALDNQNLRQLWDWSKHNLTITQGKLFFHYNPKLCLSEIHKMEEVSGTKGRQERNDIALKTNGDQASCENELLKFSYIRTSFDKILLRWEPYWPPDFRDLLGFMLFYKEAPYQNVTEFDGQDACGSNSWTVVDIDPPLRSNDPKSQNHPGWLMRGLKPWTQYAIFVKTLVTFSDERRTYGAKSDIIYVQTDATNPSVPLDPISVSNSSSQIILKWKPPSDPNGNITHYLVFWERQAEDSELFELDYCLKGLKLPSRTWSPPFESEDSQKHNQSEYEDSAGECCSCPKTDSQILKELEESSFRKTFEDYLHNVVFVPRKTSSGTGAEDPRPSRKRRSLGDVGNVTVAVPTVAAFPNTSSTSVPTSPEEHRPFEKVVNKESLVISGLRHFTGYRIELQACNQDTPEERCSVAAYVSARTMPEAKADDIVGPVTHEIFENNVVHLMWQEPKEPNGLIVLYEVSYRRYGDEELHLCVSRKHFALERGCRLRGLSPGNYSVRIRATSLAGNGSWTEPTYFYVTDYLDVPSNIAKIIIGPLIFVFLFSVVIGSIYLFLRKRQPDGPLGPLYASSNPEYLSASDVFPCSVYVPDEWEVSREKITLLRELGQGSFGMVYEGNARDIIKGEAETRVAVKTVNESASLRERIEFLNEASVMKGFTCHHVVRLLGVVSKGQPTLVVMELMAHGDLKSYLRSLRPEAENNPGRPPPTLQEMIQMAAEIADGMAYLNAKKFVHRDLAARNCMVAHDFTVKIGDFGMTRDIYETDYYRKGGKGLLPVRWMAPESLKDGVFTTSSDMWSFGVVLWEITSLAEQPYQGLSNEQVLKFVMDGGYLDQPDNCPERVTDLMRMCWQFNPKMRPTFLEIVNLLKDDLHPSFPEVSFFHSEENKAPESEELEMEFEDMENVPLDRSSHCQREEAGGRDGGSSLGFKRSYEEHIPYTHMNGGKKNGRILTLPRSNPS
Briefly: IR cellular autophosphorylation (DELFIA). In kind it is cell-based. Conditions: 2 h compound, insulin 3 ug/ml for 15 minutes, IC50 category. On the procedure: NIH-3T3 cells overexpressing human IGF-1R or IR were plated in 96-well plates (10,000 cells/well) in culture media containing 10% fetal bovine serum and incubated at 37° C. in a 5% CO2 incubator. Twenty four hours post-plating, cells were treated with different concentrations of test compounds ranging from 30 uM to 1.5 nM. Two hours after compound addition, cells were stimulated with either human IGF-1 (30 ng/ml) or insulin (3 ug/ml) for 15 minutes. Cell lysates are analyzed for phosphorylated receptors using dissociation enhanced lanthanide fluor-immuno assay (DELFIA) with anti-IGF-1R (MAB391, R&D Systems, Minneapolis, Minn.) or anti-IRβ (sc-711, Santa Cruz Biotechnology, Santa Cruz, Calif.) capture antibody and europium-labeled anti-pTyr antibody (Eu-N1 PT66, Perkin Elmer, Waltham, Mass.) for detection. The fluorescence signal for cells treated with compounds was expressed as percent relative to 100% stimulation (IGF-1 or insulin stimulated signal).

A further assay addresses ALK (Homo sapiens, UniProt Q9UM73). The assay is described as follows: ALK enzyme assay (HTRF). In kind it is biochemical. To be noted: 0.25 nM ALK, 15.0 μM ATP, values given as pIC50 category. Put shortly: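 Final compound range 0.00017 to 10 μM (twelve 1:3 dilutions). Kinase reaction with ATP and biotinylated synthetic peptide runs 120 min at 20° C, stopped with EDTA; phosphotyrosine detected by HTRF after 60 min. Inhibition referenced to DMSO (1%) and EDTA (0.1 M) controls, curve-fitted.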

Each structure is given as a SMILES string. Bounds are passed on as bounds.

T3 sequence (P08069 31-1367): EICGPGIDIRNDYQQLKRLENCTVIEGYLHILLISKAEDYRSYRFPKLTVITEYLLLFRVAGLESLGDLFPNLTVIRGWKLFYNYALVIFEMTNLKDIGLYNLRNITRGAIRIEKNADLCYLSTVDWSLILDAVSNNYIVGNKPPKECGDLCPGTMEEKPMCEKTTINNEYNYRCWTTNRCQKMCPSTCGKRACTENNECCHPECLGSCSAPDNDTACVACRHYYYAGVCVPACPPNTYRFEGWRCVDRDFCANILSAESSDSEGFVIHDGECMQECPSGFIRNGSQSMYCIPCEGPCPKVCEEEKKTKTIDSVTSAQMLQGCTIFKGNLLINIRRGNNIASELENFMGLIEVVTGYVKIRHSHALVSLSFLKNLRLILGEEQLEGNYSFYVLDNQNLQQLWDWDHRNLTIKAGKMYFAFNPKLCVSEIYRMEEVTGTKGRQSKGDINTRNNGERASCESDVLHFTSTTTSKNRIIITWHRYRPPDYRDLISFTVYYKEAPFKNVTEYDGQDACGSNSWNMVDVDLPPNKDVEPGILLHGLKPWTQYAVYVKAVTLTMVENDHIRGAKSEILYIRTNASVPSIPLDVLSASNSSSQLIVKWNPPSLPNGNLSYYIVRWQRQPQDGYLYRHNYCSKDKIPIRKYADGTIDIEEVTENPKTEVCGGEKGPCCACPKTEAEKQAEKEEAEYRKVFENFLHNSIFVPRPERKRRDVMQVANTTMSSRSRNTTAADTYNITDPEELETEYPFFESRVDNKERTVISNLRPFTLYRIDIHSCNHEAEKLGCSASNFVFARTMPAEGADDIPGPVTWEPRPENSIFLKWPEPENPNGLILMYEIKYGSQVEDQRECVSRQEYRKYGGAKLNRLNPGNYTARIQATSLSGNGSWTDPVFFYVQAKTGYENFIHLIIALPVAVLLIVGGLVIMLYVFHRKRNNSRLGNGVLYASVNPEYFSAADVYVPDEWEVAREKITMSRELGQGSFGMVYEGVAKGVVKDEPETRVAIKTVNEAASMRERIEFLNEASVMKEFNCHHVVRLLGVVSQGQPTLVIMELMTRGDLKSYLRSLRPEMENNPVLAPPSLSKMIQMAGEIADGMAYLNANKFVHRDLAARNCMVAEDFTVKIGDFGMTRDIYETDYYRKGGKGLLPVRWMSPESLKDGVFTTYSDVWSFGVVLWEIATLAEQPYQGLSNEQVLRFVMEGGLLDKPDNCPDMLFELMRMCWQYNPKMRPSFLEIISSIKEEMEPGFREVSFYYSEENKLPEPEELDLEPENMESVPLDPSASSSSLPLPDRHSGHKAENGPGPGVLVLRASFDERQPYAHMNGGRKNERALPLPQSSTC
T2 sequence (P06213 979-1382): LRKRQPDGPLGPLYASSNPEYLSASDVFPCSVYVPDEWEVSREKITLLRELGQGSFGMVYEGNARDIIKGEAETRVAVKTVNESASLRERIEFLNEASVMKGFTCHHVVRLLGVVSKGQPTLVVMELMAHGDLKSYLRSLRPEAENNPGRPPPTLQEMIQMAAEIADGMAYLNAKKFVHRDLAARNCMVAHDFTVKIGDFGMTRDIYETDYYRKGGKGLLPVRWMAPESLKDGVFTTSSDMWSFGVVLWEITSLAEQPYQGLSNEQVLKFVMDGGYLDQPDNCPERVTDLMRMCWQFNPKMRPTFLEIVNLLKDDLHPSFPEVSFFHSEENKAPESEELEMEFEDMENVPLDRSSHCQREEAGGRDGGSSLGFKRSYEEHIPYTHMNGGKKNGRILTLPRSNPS
Chain of ALK (Q9UM73 19-1620): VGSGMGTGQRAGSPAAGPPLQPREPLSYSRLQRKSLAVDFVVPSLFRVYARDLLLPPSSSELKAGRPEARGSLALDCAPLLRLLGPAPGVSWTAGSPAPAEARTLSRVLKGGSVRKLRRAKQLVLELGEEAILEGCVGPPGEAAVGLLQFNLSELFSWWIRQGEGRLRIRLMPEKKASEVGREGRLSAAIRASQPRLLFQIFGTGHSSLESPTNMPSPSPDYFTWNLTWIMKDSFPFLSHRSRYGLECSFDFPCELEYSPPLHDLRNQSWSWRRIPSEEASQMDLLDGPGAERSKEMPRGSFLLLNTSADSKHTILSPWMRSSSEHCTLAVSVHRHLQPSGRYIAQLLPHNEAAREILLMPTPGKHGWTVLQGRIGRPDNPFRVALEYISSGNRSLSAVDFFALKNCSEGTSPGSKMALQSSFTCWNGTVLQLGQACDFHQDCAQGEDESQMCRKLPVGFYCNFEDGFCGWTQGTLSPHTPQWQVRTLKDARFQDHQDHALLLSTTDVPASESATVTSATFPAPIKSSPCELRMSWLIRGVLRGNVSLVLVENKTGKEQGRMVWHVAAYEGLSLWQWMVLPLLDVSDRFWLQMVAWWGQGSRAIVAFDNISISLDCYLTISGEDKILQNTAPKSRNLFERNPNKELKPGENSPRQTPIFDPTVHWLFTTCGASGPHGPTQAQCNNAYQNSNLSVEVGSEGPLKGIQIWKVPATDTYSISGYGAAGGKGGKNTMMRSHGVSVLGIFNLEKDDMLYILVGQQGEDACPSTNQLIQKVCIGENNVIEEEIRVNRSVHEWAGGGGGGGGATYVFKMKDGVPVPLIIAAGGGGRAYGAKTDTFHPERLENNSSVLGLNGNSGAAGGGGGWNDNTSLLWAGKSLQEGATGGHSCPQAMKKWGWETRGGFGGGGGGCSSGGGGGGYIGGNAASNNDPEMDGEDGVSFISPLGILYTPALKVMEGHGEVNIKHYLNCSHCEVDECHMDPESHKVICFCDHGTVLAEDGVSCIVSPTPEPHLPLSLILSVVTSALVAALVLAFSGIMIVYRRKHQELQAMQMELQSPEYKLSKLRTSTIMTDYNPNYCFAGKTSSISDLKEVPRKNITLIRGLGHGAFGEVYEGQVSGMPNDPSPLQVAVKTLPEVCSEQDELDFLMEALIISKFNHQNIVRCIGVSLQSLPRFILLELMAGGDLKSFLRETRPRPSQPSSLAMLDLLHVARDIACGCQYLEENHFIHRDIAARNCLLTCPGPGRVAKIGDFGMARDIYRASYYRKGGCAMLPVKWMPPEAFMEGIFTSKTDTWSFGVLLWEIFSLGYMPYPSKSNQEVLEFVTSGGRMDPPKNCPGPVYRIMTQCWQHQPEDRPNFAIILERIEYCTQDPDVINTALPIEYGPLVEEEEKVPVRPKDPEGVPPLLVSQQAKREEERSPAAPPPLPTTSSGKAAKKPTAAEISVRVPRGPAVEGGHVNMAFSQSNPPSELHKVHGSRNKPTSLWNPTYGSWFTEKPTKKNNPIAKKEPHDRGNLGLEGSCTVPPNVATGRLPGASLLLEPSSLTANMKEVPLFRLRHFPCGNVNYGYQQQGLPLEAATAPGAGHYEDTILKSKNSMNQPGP
T1 sequence (P08069 957-1367): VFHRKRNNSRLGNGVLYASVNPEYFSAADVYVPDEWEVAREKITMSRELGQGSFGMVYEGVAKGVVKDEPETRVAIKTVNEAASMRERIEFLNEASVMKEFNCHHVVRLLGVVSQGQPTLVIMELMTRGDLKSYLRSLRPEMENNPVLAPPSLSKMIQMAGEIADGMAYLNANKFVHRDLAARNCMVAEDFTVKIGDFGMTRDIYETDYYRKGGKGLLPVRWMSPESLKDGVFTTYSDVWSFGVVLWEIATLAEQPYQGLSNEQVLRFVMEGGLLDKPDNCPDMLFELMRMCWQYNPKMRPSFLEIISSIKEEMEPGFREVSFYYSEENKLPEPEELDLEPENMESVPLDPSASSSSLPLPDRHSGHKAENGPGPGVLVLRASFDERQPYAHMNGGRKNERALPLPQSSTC

For `COc1cc2c(cc1Nc1nc(Nc3cccc(F)c3C(N)=O)c3c(F)c[nH]c3n1)N(C(=O)CN(C)C)CC2` [Example 252, 2-[(2-{[1-(N,N-dimethylglycyl)-5-(methyloxy)-2,3-dihydro-1H-indol-6-yl]amino}-5-fluoro-1H-pyrrolo[2,3-d]pyrimidin-4-yl)amino]-6-fluorobenzamide], the IC50 was 0.251 to 1 nM at human IGF1R (hIGF1R); 0.251 to 1 nM against human IR (hIR); less than 250 nM in the assay with Colo205; less than 250 nM in the assay on NCI-H929; less than 100 nM in assay [1]; less than 100 nM in assay [2].

On to `COc1cc2c(cc1Nc1nc(Nc3cc(Cl)cc(F)c3C(N)=O)c3cc[nH]c3n1)N(C(=O)CN1CCCC1)CCC2` [Example 173, 4-chloro-2-fluoro-6-[(2-{[6-(methyloxy)-1-(1-pyrrolidinylacetyl)-1,2,3,4-tetrahydro-7-quinolinyl]amino}-1H-pyrrolo[2,3-d]pyrimidin-4-yl)amino]benzamide], for which the IC50 was 0.251 to 1 nM at ALK; 250 to 1000 nM in the assay on Colo205; less than 250 nM with NCI-H929; less than 100 nM in assay [1]; 100 to 500 nM in assay [2].

Turning to `COc1cc2c(cc1Nc1nc(Nc3cccc(F)c3C(N)=O)c3cc[nH]c3n1)N(C(C)=O)CCC2` [Example 216, 2-[(2-{[1-acetyl-6-(methyloxy)-1,2,3,4-tetrahydro-7-quinolinyl]amino}-1H-pyrrolo[2,3-d]pyrimidin-4-yl)amino]-6-fluorobenzamide], the IC50 on human IGF1R (hIGF1R) was 5.01 to 200 nM; against human IR (hIR) it was 5.01 to 158 nM; in the assay with Colo205, more than 1000 nM; with NCI-H929, 250 to 1000 nM; in assay [1], more than 500 nM; in assay [2] it was more than 500 nM.

Take `COc1cc2ccn(CC(=O)N(C)C)c2cc1Nc1nc(Nc2cccc(F)c2C(N)=O)c2cc[nH]c2n1` [Example 196, 2-[(2-{[1-[2-(dimethylamino)-2-oxoethyl]-5-(methyloxy)-1H-indol-6-yl]amino}-1H-pyrrolo[2,3-d]pyrimidin-4-yl)amino]-6-fluorobenzamide]: the IC50 is 5.01 to 200 nM on human IGF1R (hIGF1R); 5.01 to 200 nM on ALK; more than 1000 nM with NCI-H929; more than 500 nM in assay [1]; more than 500 nM in assay [2].

For the molecule `COc1c(Nc2nc(Nc3cccc(F)c3C(N)=O)c3cc[nH]c3n2)ccc(N2CCN(C(C)C)CC2)c1C` [Example 50, 2-fluoro-6-[(2-{[3-methyl-4-[4-(1-methylethyl)-1-piperazinyl]-2-(methyloxy)phenyl]amino}-1 H-pyrrolo[2,3-d]pyrimidin-4-yl)amino]benzamide], the IC50 was 1.26 to 3.98 nM on ALK; more than 1000 nM in the assay with Colo205; 250 to 1000 nM in the assay with NCI-H929; more than 500 nM in assay [1]; more than 500 nM in assay [2].

Regarding `CNC(=O)c1c(F)cccc1Nc1nc(Nc2cc3c(cc2OC)CCCN3C(C)=O)nc2[nH]ccc12` [Example 215, 2-[(2-{[1-acetyl-6-(methyloxy)-1,2,3,4-tetrahydro-7-quinolinyl]amino}-1H-pyrrolo[2,3-d]pyrimidin-4-yl)amino]-6-fluoro-N-methylbenzamide], the IC50 at human IGF1R (hIGF1R) is 5.01 to 200 nM; against human IR (hIR) it was 5.01 to 158 nM; in the assay with Colo205 it was more than 1000 nM; with NCI-H929 it was 250 to 1000 nM; in assay [1], more than 500 nM; in assay [2], more than 500 nM.

As for `COc1cc2c(cc1Nc1nc(Nc3cccc(F)c3C(N)=O)c3c(C)c[nH]c3n1)N(C(=O)CN(C)C)CC2` [Example 259, 2-[(2-{[1-(N,N-dimethylglycyl)-5-(methyloxy)-2,3-dihydro-1H-indol-6-yl]amino}-5-methyl-1H-pyrrolo[2,3-d]pyrimidin-4-yl)amino]-6-fluorobenzamide], the IC50 at human IGF1R (hIGF1R) was 0.251 to 1 nM; against human IR (hIR), 0.251 to 1 nM; in the assay with Colo205 it was 250 to 1000 nM; with NCI-H929 it was less than 250 nM; in assay [1], 100 to 500 nM; in assay [2], 100 to 500 nM.

As to `CCCN1CCC(c2ccc(Nc3nc(Nc4cccc(F)c4C(N)=O)c4cc[nH]c4n3)c(OC)c2)CC1` [Example 42, 2-fluoro-6-[(2-{[2-(methyloxy)-4-(1-propyl-4-piperidinyl)phenyl]amino}-1H-pyrrolo[2,3-d]pyrimidin-4-yl)amino]benzamide], the IC50 on human IGF1R (hIGF1R) is 0.251 to 1 nM; at human IR (hIR), 0.251 to 1 nM; in the assay on Colo205, less than 250 nM; with NCI-H929 it was less than 250 nM; in assay [1], 100 to 500 nM; in assay [2], 100 to 500 nM.

On to `COc1cc(N2CCC(N3CCCCC3)CC2)ccc1Nc1nc(Nc2cccc(F)c2C(N)=O)c2cc[nH]c2n1` [Example 45, 2-[(2-{[4-(1,4′-bipiperidin-1′-yl)-2-(methyloxy)phenyl]amino}-1H-pyrrolo[2,3-d]pyrimidin-4-yl)amino]-6-fluorobenzamide], for which the IC50 at human IGF1R (hIGF1R) was 1.26 to 3.98 nM; on human IR (hIR), 1.26 to 3.98 nM; with Colo205, 250 to 1000 nM; in the assay on NCI-H929, less than 250 nM; in assay [1] it was 100 to 500 nM; in assay [2] it was 100 to 500 nM.

For `CNC(=O)c1c(F)cc(Cl)cc1Nc1nc(Nc2cc3c(cc2OC)CCN3C(=O)CN2CCCC2)nc2[nH]ccc12` [Example 176, 4-chloro-2-fluoro-N-methyl-6-[(2-{[5-(methyloxy)-1-(1-pyrrolidinylacetyl)-2,3-dihydro-1H-indol-6-yl]amino}-1H-pyrrolo[2,3-d]pyrimidin-4-yl)amino]benzamide], the IC50 at human IGF1R (hIGF1R) is 0.251 to 1 nM; on human IR (hIR) it was 0.251 to 1 nM; in the assay with Colo205, 250 to 1000 nM; in the assay on NCI-H929 it was 250 to 1000 nM; in assay [1] it was 100 to 500 nM; in assay [2], 100 to 500 nM.

With `COc1cc2c(cc1Nc1nc(Nc3ccc(F)c(F)c3C(=O)NC(C)C)c3cc[nH]c3n1)N(C(=O)CN(C)C)CCC2` [Example 164, 6-[(2-{[1-(N,N-dimethylglycyl)-6-(methyloxy)-1,2,3,4-tetrahydro-7-quinolinyl]amino}-1H-pyrrolo[2,3-d]pyrimidin-4-yl)amino]-2,3-difluoro-N-(1-methylethyl)benzamide], the IC50 on human IGF1R (hIGF1R) is 5.01 to 200 nM; against human IR (hIR), 5.01 to 158 nM; on ALK, 1.26 to 3.98 nM; with Colo205 it was more than 1000 nM; in the assay with NCI-H929, 250 to 1000 nM.

Take `CNC(=O)c1c(F)cccc1Nc1nc(Nc2cc3c(cc2OC)C(C)(C)CC(=O)N3)nc2[nH]ccc12` [Example 228, 2-[(2-{[4,4-dimethyl-6-(methyloxy)-2-oxo-1,2,3,4-tetrahydro-7-quinolinyl]amino}-1H-pyrrolo[2,3-d]pyrimidin-4-yl)amino]-6-fluoro-N-methylbenzamide]: the IC50 on human IGF1R (hIGF1R) is 1.26 to 3.98 nM; on human IR (hIR) it was 1.26 to 3.98 nM; at ALK, 1.26 to 3.98 nM; with Colo205 it was more than 1000 nM; with NCI-H929, 250 to 1000 nM.

The record behind these values is patent publication US7981903B2, “2-[2-{phenylamino}-1H-pyrrolo[2,3-D]pyrimidin-4-yl)amino] benzamide derivatives as IGF-1R inhibitors for the treatment of cancer” (GlaxoSmithKline LLC, priority 2007, dated 2011).
